According to the NIST ThermoML archive (doi:10.1021/je050116g):

Tests used:
[1] = 298.15 K; 101.33 kPa; Liquid
[2] = xn = mol fraction of the nth substance listed; settings: 298.15 K, 101.33 kPa, Liquid
[3] = relative permittivity at various frequencies (dimensionless); xn = mol fraction of the nth substance listed; settings: 298.15 K, 101.33 kPa, Liquid, Frequency=0.03 MHz, Parallel plate capacitor

CCO [ethanol]
Settings | mass density [kg/m3]
[1] | 785.055

CCCCCO [pentan-1-ol]
Settings | mass density [kg/m3]
[1] | 810.883

CCCCCCCCCCCC [dodecane] + CCCO
Settings | mass density [kg/m3] | relative permittivity
[2], x2 = 0.00273 | 745.43 | –
[2], x2 = 0.00429 | 745.426 | –
[2], x2 = 0.007 | 745.424 | –
[2], x2 = 0.01162 | 745.429 | –
[2], x2 = 0.0181 | 745.456 | –
[2], x2 = 0.0248 | 745.504 | –
[2], x2 = 0.04304 | 745.689 | –
[2], x2 = 0.06062 | 745.916 | –
[2], x2 = 0.07866 | 746.164 | –
[2], x2 = 0.1025 | 746.495 | –
[3], x2 = 0.001113 | – | 2.00841
[3], x2 = 0.001805 | – | 2.00926
[3], x2 = 0.00262 | – | 2.01026
[3], x2 = 0.003582 | – | 2.01146
[3], x2 = 0.004766 | – | 2.01292
[3], x2 = 0.006045 | – | 2.01449
[3], x2 = 0.00741 | – | 2.01613
[3], x2 = 0.00918 | – | 2.01815
[3], x2 = 0.01131 | – | 2.0204
[3], x2 = 0.01408 | – | 2.02313
[3], x2 = 0.01818 | – | 2.02685
[3], x2 = 0.0234 | – | 2.03119
[3], x2 = 0.02953 | – | 2.03612
[3], x2 = 0.03486 | – | 2.04033
[3], x2 = 0.04243 | – | 2.04635
[3], x2 = 0.05033 | – | 2.05272
[3], x2 = 0.06022 | – | 2.06108
[3], x2 = 0.07048 | – | 2.07019
[3], x2 = 0.08292 | – | 2.08206
[3], x2 = 0.09516 | – | 2.09474
[3], x2 = 0.11 | – | 2.11157

CCCCCCCCCCCC [dodecane] + CO
Settings | mass density [kg/m3] | relative permittivity
[2], x2 = 0.00135 | 745.406 | –
[2], x2 = 0.00185 | 745.4 | –
[2], x2 = 0.00406 | 745.379 | –
[2], x2 = 0.00925 | 745.332 | –
[2], x2 = 0.01113 | 745.324 | –
[2], x2 = 0.01828 | 745.284 | –
[2], x2 = 0.02969 | 745.265 | –
[2], x2 = 0.0464 | 745.259 | –
[2], x2 = 0.0642 | 745.271 | –
[2], x2 = 0.08321 | 745.289 | –
[2], x2 = 0.09518 | 745.306 | –
[3], x2 = 0.000771 | – | 2.00822
[3], x2 = 0.001621 | – | 2.00927
[3], x2 = 0.00274 | – | 2.01066
[3], x2 = 0.003489 | – | 2.01159
[3], x2 = 0.004562 | – | 2.01293
[3], x2 = 0.005874 | – | 2.01448
[3], x2 = 0.008056 | – | 2.01694
[3], x2 = 0.01061 | – | 2.01951
[3], x2 = 0.0131 | – | 2.02187
[3], x2 = 0.01491 | – | 2.0235
[3], x2 = 0.01897 | – | 2.02697
[3], x2 = 0.02456 | – | 2.03155
[3], x2 = 0.03063 | – | 2.03644
[3], x2 = 0.03798 | – | 2.04263
[3], x2 = 0.04663 | – | 2.05023
[3], x2 = 0.05524 | – | 2.05834
[3], x2 = 0.06621 | – | 2.06954
[3], x2 = 0.08007 | – | 2.08561

CO [methanol]
Settings | mass density [kg/m3]
[1] | 786.538

CCCCCCCCCO [nonan-1-ol]
Settings | mass density [kg/m3]
[1] | 824.263

CCCCCCCCCO [nonan-1-ol] + CCCCCCCCCCCC
[2]
Settings | mass density [kg/m3]
x1 = 0.00099 | 745.467
x1 = 0.0047 | 745.637
x1 = 0.00777 | 745.786
x1 = 0.01456 | 746.133
x1 = 0.02651 | 746.79
x1 = 0.03533 | 747.291
x1 = 0.05117 | 748.212
x1 = 0.06465 | 749.011
x1 = 0.08043 | 749.97
x1 = 0.09832 | 751.064

CCCO [propan-1-ol]
Settings | mass density [kg/m3]
[1] | 799.564

CCCCCCCCCCCC [dodecane]
Settings | mass density [kg/m3]
[1] | 745.435

CCCCCCCCO [octan-1-ol]
Settings | mass density [kg/m3]
[1] | 821.694

CCCCCCCCCCO [decan-1-ol]
Settings | mass density [kg/m3]
[1] | 826.421

CCCCCCO [hexan-1-ol] + CCCCCCCCCCCC
Settings | mass density [kg/m3] | relative permittivity
[2], x1 = 0.00175 | 745.477 | –
[2], x1 = 0.0046 | 745.539 | –
[2], x1 = 0.00826 | 745.625 | –
[2], x1 = 0.01788 | 745.888 | –
[2], x1 = 0.02646 | 746.157 | –
[2], x1 = 0.03537 | 746.455 | –
[2], x1 = 0.04959 | 746.947 | –
[2], x1 = 0.0656 | 747.525 | –
[2], x1 = 0.07934 | 748.03 | –
[2], x1 = 0.09708 | 748.704 | –
[3], x1 = 0.000504 | – | 2.00799
[3], x1 = 0.001087 | – | 2.00873
[3], x1 = 0.001795 | – | 2.00963
[3], x1 = 0.002783 | – | 2.01089
[3], x1 = 0.004043 | – | 2.0125
[3], x1 = 0.005459 | – | 2.0143
[3], x1 = 0.006744 | – | 2.0159
[3], x1 = 0.008507 | – | 2.01802
[3], x1 = 0.01046 | – | 2.02024
[3], x1 = 0.01278 | – | 2.02269
[3], x1 = 0.01656 | – | 2.02639
[3], x1 = 0.02 | – | 2.02952
[3], x1 = 0.02535 | – | 2.03412
[3], x1 = 0.03116 | – | 2.03887
[3], x1 = 0.03741 | – | 2.04388
[3], x1 = 0.04472 | – | 2.0497
[3], x1 = 0.05324 | – | 2.05652
[3], x1 = 0.06176 | – | 2.06346
[3], x1 = 0.07197 | – | 2.072
[3], x1 = 0.08324 | – | 2.08177
[3], x1 = 0.0941 | – | 2.09164
[3], x1 = 0.1052 | – | 2.10222

CCCCCCCCCCCC [dodecane] + CCCCCO
Settings | mass density [kg/m3] | relative permittivity
[2], x2 = 0.00199 | 745.463 | –
[2], x2 = 0.00476 | 745.503 | –
[2], x2 = 0.00753 | 745.546 | –
[2], x2 = 0.01643 | 745.714 | –
[2], x2 = 0.02691 | 745.951 | –
[2], x2 = 0.03525 | 746.159 | –
[2], x2 = 0.05055 | 746.571 | –
[2], x2 = 0.06514 | 746.983 | –
[2], x2 = 0.08115 | 747.444 | –
[2], x2 = 0.09931 | 747.979 | –
[3], x2 = 0.000482 | – | 2.00767
[3], x2 = 0.001089 | – | 2.00844
[3], x2 = 0.001796 | – | 2.00932
[3], x2 = 0.002589 | – | 2.01032
[3], x2 = 0.00344 | – | 2.0114
[3], x2 = 0.004549 | – | 2.0128
[3], x2 = 0.005875 | – | 2.01448
[3], x2 = 0.007295 | – | 2.01623
[3], x2 = 0.009216 | – | 2.0185
[3], x2 = 0.01162 | – | 2.02114
[3], x2 = 0.0141 | – | 2.02365
[3], x2 = 0.01688 | – | 2.02629
[3], x2 = 0.0211 | – | 2.03003
[3], x2 = 0.02571 | – | 2.03388
[3], x2 = 0.03208 | – | 2.03903
[3], x2 = 0.03962 | – | 2.045
[3], x2 = 0.04963 | – | 2.05298
[3], x2 = 0.05931 | – | 2.0609
[3], x2 = 0.07029 | – | 2.07011
[3], x2 = 0.08177 | – | 2.08023
[3], x2 = 0.09402 | – | 2.09162
[3], x2 = 0.1068 | – | 2.10429

CCCCCCO [hexan-1-ol]
Settings | mass density [kg/m3]
[1] | 815.275
